Test results as given in the RepoRT retention time repository (doi:10.1016/j.chroma.2015.11.014).

Assay: RP, Agilent ZORBAX Eclipse Plus C18, 150 × 2.1 mm, 3.5 µm, 40 °C, 0.3 mL/min, estimated dead time 1.1 min; A: water + 0.1% formic acid; B: acetonitrile + 0.1% formic acid; gradient (min/%B) 0/2 1/2 2/20 16.5/98 22/98
Conditions: stereoisomer not certain

| LC retention time [min] | Structure (SMILES) |
| --- | --- |
| 12.4 | CCCCCCCCCC[N+](C)(C)CCCCCCCC |
| 5.16 | CC(N)c1nc2ccccc2s1 (stereo not drawn) |
| 4.5 | Cn1c(=O)[nH]c(=O)c2[nH]cnc21 |
| 6.53 | CCN(CC)C(=O)Nc1ccc(OCC(O)CNC(C)(C)C)c(C(C)=O)c1 (stereo not drawn) |
| 9.38 | CCN(CC)C(=O)C(C#N)=Cc1cc(O)c(O)c([N+](=O)[O-])c1 |
| 6.48 | CN1C(C)(C)CC(OC(=O)CCCCCCCCC(=O)OC2CC(C)(C)N(C)C(C)(C)C2)CC1(C)C |
| 8.63 | c1ccc([P+](c2ccccc2)(c2ccccc2)c2ccccc2)cc1 |
| 9.42 | COc1cc(-c2oc3cc(O)cc(O)c3c(=O)c2O)ccc1O |
| 6.22 | COc1ccccc1-c1nc2ccccc2[nH]1 |
| 4.09 | Nc1nc2c(ncn2C2CC(O)C(CO)O2)c(=O)[nH]1 (stereo not drawn) |
| 10.8 | CCC(C)(C)C(=O)OC1CC(CO)C=C2C=CC(C)C(CCC3CC(O)CC(=O)O3)C21 (stereo not drawn) |
| 4.78 | COc1cc(Cc2cnc(N)nc2N)cc(OC)c1O |
| 8.82 | CCNc1nc(NC(C)(C)C)nc(S(C)=O)n1 (stereo not drawn) |
| 8.86 | CCCc1nc2c(C)cc(-c3nc4ccccc4n3C)cc2n1Cc1ccc(-c2ccccc2C(=O)O)cc1 |
| 4.82 | CNc1c(C)n(C)n(-c2ccccc2)c1=O |
| 6.66 | CCCOc1ccc2nc(NC(=O)OC)[nH]c2c1 |
| 13.6 | CCCCCCCCCC(=O)N(C)C |
| 4.29 | COC(=O)Nc1cccc(N)c1 |

The remaining lines, values behind:

| Structure (SMILES) | LC retention time [min] |
| --- | --- |
| COCC(O)c1ccc(OCC(O)CNC(C)C)cc1 (stereo not drawn) | 5.06 |
| O=C1CN(N=Cc2ccc([N+](=O)[O-])o2)C(=O)N1 | 6.22 |
| CC(C)(C)[P+](=O)C(C)(C)C | 7.1 |
| O=C(O)CC1(C(=O)O)CCCCC1 | 7.49 |
| CCCCCCCCCCCCCCCCN1C=CC=CC1 | 13 |
| NCCc1c[nH]c2ccccc12 | 4.97 |
| Nc1ccc(O)c(C(=O)O)c1 | 2.18 |
| CC(C)NCC(O)COc1ccc(CC(N)=O)cc1 (stereo not drawn) | 4.62 |
| Oc1cccc2n[nH]nc12 | 5.34 |
| CC1c2cccc(O)c2C(O)=C2C(=O)C3(O)C(O)=C(C(N)=O)C(=O)C(N(C)C)C3C(O)C21 (stereo not drawn) | 6.5 |
| O=C1CC2(CCCCC2)CN1 | 7.59 |
| CCCC1OC2CC3C4CCC5=CC(=O)C=CC5(C)C4C(O)CC3(C)C2(C(=O)CO)O1 (stereo not drawn) | 11 |
| CCCOP(=O)(OCCC)OCCC | 10.9 |
| CCC1(c2ccccc2)C(=O)NCNC1=O | 6.35 |
| CCN1CCCC1CNC(=O)c1cc(S(=O)(=O)CC)c(N)cc1O (stereo not drawn) | 5.62 |
| CCOC(=O)C[P+](c1ccccc1)(c1ccccc1)c1ccccc1 | 8 |
| NC(=O)N1c2ccccc2C=Cc2ccccc21 | 8.87 |
| O=C(O)CC(O)(CC(=O)O)C(=O)O | 2.08 |
| O=S(=O)([O-])CCCC[P+](c1ccccc1)(c1ccccc1)c1ccccc1 | 7.14 |
| COP(=O)(NC(C)=O)SC (stereo not drawn) | 4.5 |
| Nc1nc2c(ncn2C2OC(CO)C(O)C2O)c(=O)[nH]1 (stereo not drawn) | 3.15 |
| S=c1[nH]c2ccccc2o1 | 8.26 |
| CCOP(=S)(OCC)Oc1ccc([N+](=O)[O-])cc1 | 14.1 |
| Oc1ccc(Oc2ccccc2)cc1 | 11.1 |
| NCCCCC(NC(CCc1ccccc1)C(=O)O)C(=O)N1CCCC1C(=O)O (stereo not drawn) | 5.18 |
| C=C(C)C([O-])=NCCC[N+](C)(C)C | 4.7 |
| OCCN1CCN(CCCN2c3ccccc3C=Cc3ccccc32)CC1 | 7.24 |
| CC(=O)Nc1ccc(S(=O)(=O)Nc2cc(C)on2)cc1 | 7.41 |
| CNCCC(Oc1cccc2ccccc12)c1cccs1 (stereo not drawn) | 8.43 |
| COc1cc(Cc2c(N)nc(N)[nH]c2=O)cc(OC)c1OC | 5.43 |
